One block for each molecule: values may come before it. Active and inactive are the calls of the source. No cut-off for these calls is given here.
Tests used:
[1] = test system: PC-12; assay: Cytotoxicity against […] cells at 10 uM after 24 hrs by MTT assay; type: cell-based; details: rat, pc-12, 24 h
[2] = test system: PC-12; assay: Neuroprotective activity against Abeta25-35-induced […] cells assessed as cell viability at 1 uM preincubated for 2 hrs prior Abeta25-35 challenge measured after 24 hrs by MTT assay; type: functional; details: Rattus norvegicus; for viability at 1 µM: read-out: Activity
[3] = test system: PC-12; assay: Neuroprotective activity against Abeta25-35-induced […] cells assessed as cell viability at 10 uM preincubated for 2 hrs prior Abeta25-35 challenge measured after 24 hrs by MTT assay; type: functional; details: Rattus norvegicus; for viability at 10 µM: read-out: Activity
[4] = test system: PC-12; assay: Cytotoxicity against […] cells at 1 uM after 24 hrs by MTT assay; type: cell-based; details: rat, pc-12, 24 h
[5] = test system: SH-SY5Y; assay: Neuroprotective activity against oxygen-glucose deprivation-induced human SH-SY5Y cells assessed as cell viability at 5 uM preincubated for 2 hrs prior oxygen-glucose deprivation challenge for 1 hr measured after 24 hrs incubation under normal condition by MTT assay; type: functional; details: read-out: Activity
[6] = test system: PC-12; assay: Neuroprotective activity against H2O2-induced […] cells assessed as cell viability at 10 uM preincubated for 2 hrs prior H2O2 challenge measured after 24 hrs by MTT assay; type: functional; details: Rattus norvegicus, read-out: Activity
[7] = Solubility of the compound at 1 uM; type: physicochemical
[8] = Solubility of the compound at 10 uM; type: physicochemical

SMILES: CCOc1ccc(/C=C/C(=O)[C@H]2CC[C@H]3[C@@H]4CC=C5C[C@@H](O)CC[C@]5(C)[C@H]4CC[C@]23C)cc1OC
Activity [1]: Toxic
Activity [2]: inactive
viability at 10 µM [3]: 26.7%

SMILES: C[C@]12CC[C@H]3[C@@H](C[C@@H]4O[C@@]45C[C@@H](O)CC[C@]35C)[C@@H]1CC[C@@H]2C(=O)/C=C/c1ccc(Cl)cc1Cl
Activity [1]: Toxic
Activity [2]: inactive
viability at 10 µM [3]: 6%

SMILES: COc1cccc(/C=C/C(=O)[C@H]2CC[C@H]3[C@@H]4CC=C5C[C@@H](O)CC[C@]5(C)[C@H]4CC[C@]23C)c1
Activity [1]: Toxic
viability at 1 µM [2]: 50.3%
Activity [4]: Toxic
viability at 10 µM [3]: 44%

SMILES: CCOc1ccccc1/C=C/C(=O)[C@H]1CC[C@H]2[C@@H]3C[C@@H]4O[C@@]45C[C@@H](O)CC[C@]5(C)[C@H]3CC[C@]12C
Activity [1]: Toxic
Activity [2]: inactive
viability at 5 µM [5]: 98.8%
viability at 10 µM [3]: 49.5%

SMILES: C[C@]12CC[C@H]3[C@@H](C[C@@H]4O[C@@]45C[C@@H](O)CC[C@]35C)[C@@H]1CC[C@@H]2C(=O)/C=C/c1ccccn1
Activity [1]: Toxic
Activity [2]: inactive
viability at 10 µM [3]: 29.7%

SMILES: C[C@]12CC[C@H]3[C@@H](C[C@@H]4O[C@@]45C[C@@H](O)CC[C@]35C)[C@@H]1CC[C@@H]2C(=O)/C=C/c1ccccc1
viability at 1 µM [2]: 64.8%
viability at 10 µM [3]: 70.5%

SMILES: COc1ccccc1/C=C/C(=O)[C@H]1CC[C@H]2[C@@H]3CC=C4C[C@@H](O)CC[C@]4(C)[C@H]3CC[C@]12C
viability at 1 µM [2]: 64.1%
viability at 10 µM [6]: 83.7%
viability at 10 µM [3]: 74.5%

SMILES: C[C@]12CC[C@H]3[C@@H](C[C@@H]4O[C@@]45C[C@@H](O)CC[C@]35C)[C@@H]1CC[C@@H]2C(=O)/C=C/c1ccccc1F
Activity [1]: Toxic
Activity [2]: inactive
viability at 10 µM [3]: 36.7%

SMILES: CC(=O)[C@H]1CC[C@H]2[C@@H]3CC=C4C[C@@H](O)CC[C@]4(C)[C@H]3CC[C@]12C
Activity [2]: inactive
Activity [3]: inactive

SMILES: C[C@]12CC[C@H]3[C@@H](CC=C4C[C@@H](O)CC[C@@]43C)[C@@H]1CC[C@@H]2C(=O)/C=C/c1ccc(F)cc1
Activity [1]: Toxic
Activity [2]: inactive
viability at 10 µM [3]: 32.6%

solubility [7]: Insoluble
solubility [8]: Insoluble
SMILES: C[C@]12CC[C@H]3[C@@H](CC=C4C[C@@H](O)CC[C@@]43C)[C@@H]1CC[C@@H]2C(=O)/C=C/c1ccc(C#N)cc1

SMILES: C[C@]12CC[C@H]3[C@@H](C[C@@H]4O[C@@]45C[C@@H](O)CC[C@]35C)[C@@H]1CC[C@@H]2C(=O)/C=C/c1ccccc1C(F)(F)F
Activity [2]: inactive
Activity [3]: inactive

solubility [7]: Insoluble
solubility [8]: Insoluble
SMILES: C[C@]12CC[C@H]3[C@@H](CC=C4C[C@@H](O)CC[C@@]43C)[C@@H]1CC[C@@H]2C(=O)/C=C/c1ccc(Br)cc1

SMILES: C[C@]12CC[C@H]3[C@@H](CC=C4C[C@@H](O)CC[C@@]43C)[C@@H]1CC[C@@H]2C(=O)/C=C/c1ccc(Cl)cc1
solubility [7]: Insoluble
solubility [8]: Insoluble

SMILES: Cc1ccccc1/C=C/C(=O)[C@H]1CC[C@H]2[C@@H]3CC=C4C[C@@H](O)CC[C@]4(C)[C@H]3CC[C@]12C
Activity [1]: Toxic
Activity [2]: inactive
viability at 5 µM [5]: 84.8%
viability at 10 µM [3]: 50.4%

SMILES: Cc1ccccc1/C=C/C(=O)[C@H]1CC[C@H]2[C@@H]3C[C@@H]4O[C@@]45C[C@@H](O)CC[C@]5(C)[C@H]3CC[C@]12C
Activity [1]: Toxic
Activity [2]: inactive
viability at 10 µM [3]: 49.9%

SMILES: C[C@]12CC[C@H]3[C@@H](C[C@@H]4O[C@@]45C[C@@H](O)CC[C@]35C)[C@@H]1CC[C@@H]2C(=O)/C=C/c1ccco1
Activity [2]: inactive
viability at 10 µM [3]: 82.7%

SMILES: C[C@]12CC[C@H]3[C@@H](CC=C4C[C@@H](O)CC[C@@]43C)[C@@H]1CC[C@@H]2C(=O)/C=C/c1cccc([N+](=O)[O-])c1
Activity [1]: Toxic
viability at 1 µM [2]: 51.2%
Activity [4]: Toxic
viability at 10 µM [3]: 37.8%

SMILES: C[C@]12CC[C@H]3[C@@H](CC=C4C[C@@H](O)CC[C@@]43C)[C@@H]1CC[C@@H]2C(=O)/C=C/c1ccccc1Br
Activity [2]: inactive
Activity [3]: inactive

SMILES: COc1ccc(/C=C/C(=O)[C@H]2CC[C@H]3[C@@H]4CC=C5C[C@@H](O)CC[C@]5(C)[C@H]4CC[C@]23C)cc1
Activity [1]: Toxic
Activity [2]: inactive
viability at 10 µM [3]: 25.7%

SMILES: CC(=O)[C@H]1CC[C@H]2[C@@H]3C[C@@H]4O[C@@]45C[C@@H](O)CC[C@]5(C)[C@H]3CC[C@]12C
Activity [2]: inactive
Activity [3]: inactive

SMILES: COc1cccc(/C=C/C(=O)[C@H]2CC[C@H]3[C@@H]4C[C@@H]5O[C@@]56C[C@@H](O)CC[C@]6(C)[C@H]4CC[C@]23C)c1
Activity [2]: inactive
Activity [3]: inactive

SMILES: C[C@]12CC[C@H]3[C@@H](CC=C4C[C@@H](O)CC[C@@]43C)[C@@H]1CC[C@@H]2C(=O)/C=C/c1ccccc1C(F)(F)F
Activity [2]: inactive
Activity [3]: inactive

SMILES: C[C@]12CC[C@H]3[C@@H](C[C@@H]4O[C@@]45C[C@@H](O)CC[C@]35C)[C@@H]1CC[C@@H]2C(=O)/C=C/c1ccccc1Br
Activity [2]: inactive
viability at 10 µM [3]: 61.2%

SMILES: C[C@]12CC[C@H]3[C@@H](C[C@@H]4O[C@@]45C[C@@H](O)CC[C@]35C)[C@@H]1CC[C@@H]2C(=O)/C=C/c1ccc(C#N)cc1
Activity [2]: inactive
Activity [3]: inactive

SMILES: C[C@]12CC[C@H]3[C@@H](C[C@@H]4O[C@@]45C[C@@H](O)CC[C@]35C)[C@@H]1CC[C@@H]2C(=O)/C=C/c1cccc([N+](=O)[O-])c1
Activity [1]: Toxic
Activity [2]: inactive
viability at 10 µM [3]: 31.3%

SMILES: COc1ccc(/C=C/C(=O)[C@H]2CC[C@H]3[C@@H]4C[C@@H]5O[C@@]56C[C@@H](O)CC[C@]6(C)[C@H]4CC[C@]23C)cc1
Activity [1]: Toxic
Activity [2]: inactive
viability at 10 µM [3]: 29.6%

SMILES: C[C@]12CC[C@H]3[C@@H](CC=C4C[C@@H](O)CC[C@@]43C)[C@@H]1CC[C@@H]2C(=O)/C=C/c1ccc(Cl)cc1Cl
Activity [1]: Toxic
Activity [2]: inactive
viability at 10 µM [3]: 34.5%

SMILES: O=C(O[C@@H]1Cc2c(O)cc(O)cc2O[C@@H]1c1cc(O)c(O)c(O)c1)c1cc(O)c(O)c(O)c1 [EPIGALOCATECHIN GALLATE]
viability at 10 µM [3]: 65.4%

SMILES: C[C@]12CC[C@H]3[C@@H](C[C@@H]4O[C@@]45C[C@@H](O)CC[C@]35C)[C@@H]1CC[C@@H]2C(=O)/C=C/c1ccc(Br)cc1
Activity [1]: Toxic
viability at 1 µM [2]: 50.1%
Activity [4]: Toxic
viability at 10 µM [3]: 32.5%

SMILES: C[C@]12CC[C@H]3[C@@H](CC=C4C[C@@H](O)CC[C@@]43C)[C@@H]1CC[C@@H]2C(=O)/C=C/c1ccccn1
Activity [2]: inactive
Activity [3]: inactive

SMILES: CC(C)c1ccc(/C=C/C(=O)[C@H]2CC[C@H]3[C@@H]4CC=C5C[C@@H](O)CC[C@]5(C)[C@H]4CC[C@]23C)cc1
Activity [1]: Toxic
Activity [2]: inactive
viability at 10 µM [3]: 34.9%

SMILES: CC(C)c1ccc(/C=C/C(=O)[C@H]2CC[C@H]3[C@@H]4C[C@@H]5O[C@@]56C[C@@H](O)CC[C@]6(C)[C@H]4CC[C@]23C)cc1
Activity [1]: Toxic
Activity [2]: inactive
viability at 10 µM [3]: 49.8%

SMILES: C[C@]12CC[C@H]3[C@@H](CC=C4C[C@@H](O)CC[C@@]43C)[C@@H]1CC[C@@H]2C(=O)/C=C/c1ccccc1
Activity [1]: Toxic
Activity [2]: inactive
viability at 10 µM [3]: 29%

SMILES: CCOc1ccccc1/C=C/C(=O)[C@H]1CC[C@H]2[C@@H]3CC=C4C[C@@H](O)CC[C@]4(C)[C@H]3CC[C@]12C
Activity [2]: inactive
Activity [3]: inactive

SMILES: CCOc1ccc(/C=C/C(=O)[C@H]2CC[C@H]3[C@@H]4C[C@@H]5O[C@@]56C[C@@H](O)CC[C@]6(C)[C@H]4CC[C@]23C)cc1OC
viability at 1 µM [2]: 61.1%
Activity [3]: inactive

SMILES: C[C@]12CC[C@H]3[C@@H](CC=C4C[C@@H](O)CC[C@@]43C)[C@@H]1CC[C@@H]2C(=O)/C=C/c1ccccc1F
Activity [1]: Toxic
viability at 1 µM [2]: 53.1%
Activity [4]: Toxic
viability at 10 µM [3]: 38.3%

SMILES: C[C@]12CC[C@H]3[C@@H](C[C@@H]4O[C@@]45C[C@@H](O)CC[C@]35C)[C@@H]1CC[C@@H]2C(=O)/C=C/c1ccc(Cl)cc1
Activity [1]: Toxic
Activity [2]: inactive
viability at 10 µM [3]: 39.1%

SMILES: C[C@]12CC[C@H]3[C@@H](CC=C4C[C@@H](O)CC[C@@]43C)[C@@H]1CC[C@@H]2C(=O)/C=C/c1ccco1
Activity [1]: Toxic
viability at 1 µM [2]: 52.5%
Activity [4]: Toxic
viability at 10 µM [3]: 36.9%

SMILES: C[C@]12CC[C@H]3[C@@H](C[C@@H]4O[C@@]45C[C@@H](O)CC[C@]35C)[C@@H]1CC[C@@H]2C(=O)/C=C/c1ccc(F)cc1
Activity [1]: Toxic
Activity [2]: inactive
viability at 10 µM [3]: 47.6%

Reference: ChEMBL document CHEMBL1955732, “Synthesis and biological evaluation of 21-arylidenepregnenolone derivatives as neuroprotective agents” (Bioorg Med Chem Lett, 2012)
